Read-outs that look alike come from different tables or passages of the source.
Key:
MES-SA/Dx5 cells = test: ROS determination with DCFDA, MES-SA/Dx5; type: cell-based, human; conditions: 2 h
Method: (§1) Measurements were performed as described earlier. Briefly, cells were harvested, washed with PBS, and incubated with 10 µM DCFDA in a water bath shaker at 37 °C for 30 min in a density of 3 × 10^6 cells/mL. After washing with PBS, cells were seeded to 96-well plates in PBS in a density of 2 × 10^4 cells/well. Following the measurement of the basal fluorescence, test compounds were added in different concentrations and the fluorescence of the samples was followed at time intervals of 10 min. DCFDA solution in buffer was used as a cell free control to test for interaction of the test compounds with DCFDA. Data were analyzed as fold change of fluorescence compared to basal levels and untreated cells. Significance was calculated using unpaired t-tests; results are given as *: p ≤ 0.05, **: p ≤ 0.01, ***: p ≤ 0.001, ****: p ≤ 0.0001.
(§2) Table S3: Characterization of intracellular ROS production with the DCFDA assay for P -gp negative MES-SA and P-gp positive MES-SA/Dx5 cells. Fold changes in fluorescence are shown after a 2 h with the investigated 8 -hydroxyquinoline ligands. Data S-refer to Figure 7 and allow […]
(§3) concentration range from 6.25µ M to 50µ M. Fold change of fluorescence obtained in the presence of 5 mM NAC is given in brackets.

A431-B1 cells = test: MTT viability assay, A431-B1; type: cell-based; conditions: for IC50: 72 h, MTT 72 h
Text: (§4) MDCK II canine kidney cells, A431 epidermoid carcinoma cells, the human uterine sarcoma cell lines MES-SA and the doxorubicin selected MES-SA-Dx5 were obtained from ATCC (MDCK II: No. CRL-2936™, A431: No. CRL-1555™, MES-SA: No. CRL-1976™, MES-SA/Dx5: No. CRL-1977™). ABCB1 was expressed in A431 and MES-SA cells using lentiviral transduction. The human cervix carcinoma cell line KB-3-1 and the vinblastine selected KB-v1were kind gifts from Dr. Michael M. Gottesman, National Institutes of Health. The phenotype of the resistant cells was verified using cytotoxicity assays. MDCK-B1 and MDCK-MM were established by the Sleeping Beauty transposon-based gene delivery system. OVCAR-8 and NCI-ADRres cells (obtained from the Division of Cancer Treatment and Diagnosis (DCTD) Tumor Repository (National Cancer Institute, Frederick, MD, USA)) were cultivated in RPMI-1640 (Sigma Aldrich, Budapest, Hungary), and other cell lines were cultivated in Dulbecco’s Modified Eagle Medium (DMEM, Sigma Aldrich, Budapest, Hungary), supplemented with 10% fetal bovine serum, 5 mM glutamine, and 50 unit/mL penicillin and streptomycin (Life Technologies, Carlsbad, CA, USA). All cell lines were cultivated at 37 °C, 5% CO2.
(§5) MTT viability assays were performed as described earlier with minor modifications. Briefly, cells were seeded into 96-well tissue culture plates (Sarstedt, Newton, NC, USA/Orange, Braine-l’Alleud, Belgium) at a density of 5000 cells/well and allowed to attach overnight. Test compounds were added to achieve the required final concentration in a final volume of 100 µL per well. After an incubation period of 72 h, the supernatant was removed and fresh medium containing the MTT reagent (0.083 mg/mL) was added. Incubation with MTT at 37 °C was terminated after 1 h by removing the supernatant and lysing the cells with 100 µL DMSO per well. Viability of the cells was measured spectrophotometrically based on the absorbance values at 540 nm using either a Perkin Elmer Victor X3 or an EnSpire microplate reader. Data were background corrected by subtraction of the signal obtained from unstained cell lysates and normalized to untreated cells. Curves were fitted by Prism software (GraphPad Software Inc., San Diego, CA, USA) using the sigmoidal dose-response model (comparing variable and fixed slopes). […] Significance was calculated using unpaired t-tests; results are given as *: p ≤ 0.05, **: p ≤ 0.01, ***: p ≤ 0.001, ****: p ≤ 0.0001.

MES-SA cells [1] = test: ROS determination with DCFDA, MES-SA; type: cell-based, human; conditions: 2 h
Method: as §1, §2, §3

OVCAR-8 cells = test: MTT viability assay, OVCAR-8; type: cell-based; conditions: Homo sapiens, OVCAR-8, 72 h, MTT 72 h
Text: as §4, §5

MES-SA cells [2] = test: MTT viability assay, MES-SA; type: cell-based, human; conditions: for IC50: Homo sapiens, MES-SA; for Effect of co-administration of CuCl2 on toxicity: parental MES-SA, increasing concentrations of CuCl2, MTT 72 h (Figure 2I-L)
Text: as §4, §5

[3] = MES-SA/Dx5, 6.25 µM, presence of 5 mM NAC (brackets)
[4] = MES-SA/Dx5, 12.5 µM, presence of 5 mM NAC (brackets)
[5] = MES-SA/Dx5, 25 µM, presence of 5 mM NAC (brackets)
[6] = MES-SA/Dx5, 50 µM, presence of 5 mM NAC (brackets)
[7] = presence of 1 µM Tariquidar (values in brackets)
[8] = IC50 A431 vs. A431-B1, absence of Tariquidar
[9] = IC50 A431 vs. A431-B1, presence of 1 µM Tariquidar (brackets)
[10] = 6.25 µM, presence of 5 mM NAC (brackets)
[11] = 12.5 µM, presence of 5 mM NAC (brackets)
[12] = 25 µM, presence of 5 mM NAC (brackets)
[13] = 50 µM, presence of 5 mM NAC (brackets)
[14] = MTT 72 h, absence of Tariquidar, read-out: IC50 MES-SA
[15] = Table 2, value outside brackets, read-out: MES-SA (toxicity, Table 2)

| Structure (SMILES) | Fold change in fluorescence (DCFDA) (MES-SA/Dx5 cells; MES-SA/Dx5, 6.25 µM) | Fold change in fluorescence (DCFDA) (MES-SA/Dx5 cells; [3]) | Fold change in fluorescence (DCFDA) (MES-SA/Dx5 cells; MES-SA/Dx5, 12.5 µM) | Fold change in fluorescence (DCFDA) (MES-SA/Dx5 cells; [4]) | Fold change in fluorescence (DCFDA) (MES-SA/Dx5 cells; MES-SA/Dx5, 25 µM) | Fold change in fluorescence (DCFDA) (MES-SA/Dx5 cells; [5]) | Fold change in fluorescence (DCFDA) (MES-SA/Dx5 cells; MES-SA/Dx5, 50 µM) | Fold change in fluorescence (DCFDA) (MES-SA/Dx5 cells; [6]) | IC50 (A431-B1 cells; absence of Tariquidar) [µM] | IC50 (A431-B1 cells; [7]) [µM] | Fold change in fluorescence (DCFDA) (MES-SA cells [1]; 6.25 µM) | Fold change in fluorescence (DCFDA) (MES-SA cells [1]; [10]) | Fold change in fluorescence (DCFDA) (MES-SA cells [1]; 12.5 µM) | Fold change in fluorescence (DCFDA) (MES-SA cells [1]; [11]) | Fold change in fluorescence (DCFDA) (MES-SA cells [1]; 25 µM) | Fold change in fluorescence (DCFDA) (MES-SA cells [1]; [12]) | Fold change in fluorescence (DCFDA) (MES-SA cells [1]; 50 µM) | Fold change in fluorescence (DCFDA) (MES-SA cells [1]; [13]) | IC50 (OVCAR-8 cells; absence of Tariquidar) [µM] | IC50 (OVCAR-8 cells; [7]) [µM] | also measured |
| --- | --- | --- | --- | --- | --- | --- | --- | --- | --- | --- | --- | --- | --- | --- | --- | --- | --- | --- | --- | --- | --- |
| Oc1cccc2cccnc12 [Compound Q-1, 8-Hydroxyquinoline] | 1.006± 0.15 | 1.085± 0.11 | 0.720± 0.21 | 1.071± 0.12 | 0.713± 0.21 | 0.971± 0.17 | 0.725± 0.18 | 0.918± 0.10 | 8.21 ± 4.04 | 7.06 | 0.965± 0.12 | 1.261± 0.26 | 0.799± 0.12 | 1.148± 0.32 | 0.722± 0.22 | 1.193± 0.44 | 0.748± 0.21 | 0.912± 0.38 | 3.45 ± 0.13 | 3.43 | SR A431-B1 (A431-B1 cells; [8]): 0.31; SR A431-B1 (A431-B1 cells; [9]): 0.41; IC50 (MES-SA cells [2]; [14]): 4.19 ± 0.74 µM; IC50 (MES-SA cells [2]; [15]): 4.19 ± 0.74 µM; Effect of co-administration of CuCl2 on toxicity (MES-SA cells [2]): increased the toxicity |
| Oc1c(CN2CCOCC2)ccc2cccnc12 [Compound Q-2, 7-(morpho-lino-methyl)quinolin-8-ol] | 1.863± 0.81 | 1.024± 0.19 | 2.324± 1.25 | 1.137± 0.32 | 3.348± 2.35 | 1.074± 0.28 | 4.103± 2.67 | 1.154± 0.22 | 4.05 ± 1.86 | 7.64 | 1.598± 0.32 | 1.096± 0.16 | 1.792± 0.53 | 0.930± 0.16 | 2.101± 0.86 | 0.988± 0.15 | 2.454± 1.39 | 0.946± 0.14 | 3.16 ± 0.52 | 3.28 | SR A431-B1 (A431-B1 cells; [8]): 0.82; SR A431-B1 (A431-B1 cells; [9]): 0.42; IC50 (MES-SA cells [2]; [14]): 6.97 ± 1.75 µM; IC50 (MES-SA cells [2]; [15]): 6.97 ± 1.75 µM; Effect of co-administration of CuCl2 on toxicity (MES-SA cells [2]): increased the toxicity |
| Oc1c(CN2CCCCC2)ccc2cccnc12 [Compound Q-3, 7-(piperidin-1-ylmethyl)quinolin-8-ol] | 1.449± 0.46 | 0.954± 0.15 | 1.400± 0.18 | 1.050± 0.09 | 1.586± 0.22 | 1.201± 0.17 | 1.786± 0.36 | 1.189± 0.18 | 1.14 ± 0.16 | 5.58 | 1.288± 0.24 | 1.097± 0.11 | 1.372± 0.22 | 1.080± 0.27 | 1.464± 0.39 | 1.119± 0.24 | 1.753± 0.37 | 1.054± 0.25 | 3.15 ± 0.36 | 3.72 | SR A431-B1 (A431-B1 cells; [8]): 3.96; SR A431-B1 (A431-B1 cells; [9]): 0.73; IC50 (MES-SA cells [2]; [14]): 4.11 ± 1.2 µM; IC50 (MES-SA cells [2]; [15]): 4.11 ± 1.2 µM; Effect of co-administration of CuCl2 on toxicity (MES-SA cells [2]): selective increase in sensitivity |
| Oc1c(CNCc2ccccc2F)cc(Cl)c2cccnc12 [Compound Q-4, 5-chloro-7-((2-fluorobenzylamino)methyl)quinolin-8-ol] | 1.238± 0.28 | 1.191± 0.07 | 1.396± 0.35 | 1.337± 0.26 | 1.340± 0.26 | 1.320± 0.31 | 1.286± 0.30 | 1.283± 0.20 | 2.57 ± 0.56 | 7.95 | 1.207± 0.20 | 1.030± 0.16 | 1.190± 0.14 | 1.033± 0.21 | 1.187± 0.29 | 0.985± 0.12 | 1.151± 0.19 | 1.040± 0.17 | 1.08 ± 0.1 | 1.09 | IC50 (MES-SA cells [2]; [14]): 2.75 ± 0.46 µM; IC50 (MES-SA cells [2]; [15]): 2.75 ± 0.46 µM; Effect of co-administration of CuCl2 on toxicity (MES-SA cells [2]): selective increase in sensitivity |

From article PMC7796460, “Relation of Metal-Binding Property and Selective Toxicity of 8-Hydroxyquinoline Derived Mannich Bases Targeting Multidrug Resistant Cancer Cells” (Cancers, 2021)
